Laboratory results reported in patent US20200148718A1, “PHARMACEUTICAL-GRADE 20-HYDROXYECDYSONE EXTRACT, USE OF SAME AND PREPARATION THEREOF” (BIOPHYTIS, priority 2017, published 2020).
One block for each compound: values may come before it.

Experiments:
[1] = Phase I clinical trial, single administrations (SAD), plasma pharmacokinetics; type: in vivo, humans; conditions: SAD cohorts, FIG. 3
Method: In the context of a phase I clinical trial, the plasma concentrations of BIO101 were measured after single administrations (SAD) of 100, 350, 700 and 1400 mg/day in individuals on an empty stomach. Repeated administrations (MAD) over 14 days were then carried out with a single daily dose of 350 mg or with two daily doses (morning and evening) of 350 mg and 450 mg. These administrations of BIO101 to various cohorts of volunteers (n=6) allowed to determine the main pharmacokinetic parameters of BIO101: Cmax (maximum plasma concentration of BIO101 after single or repeated), Cmin (minimum plasma concentration of BIO101 after single or repeated administration), Tmax (time necessary to reach the maximum plasma concentration of BIO101 after single or repeated administration), and AUC (Area under curve) synonymous with level of plasma exposure.
The average profile of the cohorts of the SAD is presented in FIG. 3 in which Y are young volunteers and O are volunteers, the age of which is between 65 and 85 years. […] The half-life of the 20E is approximately 3-4 hours.

[2] = pure molecule, data of the literature; cited from earlier work
[3] = tested on: nuclear receptors of the androgens or of the oestrogens; conditions: Lapenna et al., 2015; cited from earlier work
[4] = Bioavailability with respect to 20E; conditions: relative to 20E

- Bioavailability [1]: low bioavailability
- Elimination of the active ingredient from plasma [1]: almost totally disappears after 24 hours
- Half-life [1]: 3 to 4 h
SMILES: CC(C)(O)CC[C@@H](O)[C@](C)(O)[C@H]1CC[C@@]2(O)C3=CC(=O)[C@@H]4C[C@@H](O)[C@@H](O)C[C@]4(C)[C@H]3CC[C@]12C [20E, 20-hydroxyecdysone]
- Cytotoxicity [2]: slightly cytotoxic

SMILES: CC12CC(O)C(O)CC1C(=O)C=C1C2CCC2(C)C(O)CCC12O (centres unmarked) [dihydrorubrosterone, Dihydrorubrosterone]
- Interaction with nuclear receptors of the androgens or of the oestrogens [3]: capable of interacting

SMILES: CC(=O)[C@H]1CC[C@@]2(O)C3=CC(=O)[C@@H]4C[C@@H](O)[C@@H](O)C[C@]4(C)[C@H]3CC[C@]12C [poststerone, Poststerone]
- Interaction with nuclear receptors of the androgens or of the oestrogens [3]: capable of interacting
- Bioavailability with respect to 20E [4]: approximately twenty times better

SMILES: C[C@]12C[C@H](O)[C@H](O)C[C@H]1C(=O)C=C1[C@@H]2CC[C@]2(C)C(=O)CC[C@@]12O [rubrosterone, Rubrosterone]
- Interaction with nuclear receptors of the androgens or of the oestrogens [3]: capable of interacting
